Source: patent US10231967B2, “Compounds and their use as BACE inhibitors” (ASTRAZENECA AB, priority 2010, dated 2019)

The molecules below were run on sAPPβ release in SH-SY5Y cells (assay: sAPPβ release assay). Conditions: Homo sapiens, SH-SY5Y, 17 h, compounds incubated 17 h, MSD detection.
Type: cell-based
Experimental: Thaw cells and seed at a conc. of around 10000 cells/well in DMEM/F-12 with Glutamax, 10% FCS and 1% non-essential amino acids to a 384-well tissue culture treated plate, 100 μL cell susp/well. […] The cell medium was removed, followed by addition of 30 μL compound diluted in DMEM/F-12 with Glutamax, 10% FCS, 1% non-essential amino acids and 1% PeSt to a final conc. of 1% DMSO. The compounds were incubated with the cells for 17 h (overnight) at 37° C., 5% CO2. Meso Scale Discovery (MSD) plates were used for the detection of sAPPβ release. MSD sAPPβ plates were blocked in 1% BSA in Tris wash buffer (40 μL/well) for 1 h on shake at r.t. and washed 1 time in Tris wash buffer (40 μL/well). 20 μL of medium was transferred to the pre-blocked and washed MSD sAPPβ microplates, and the cell plates were further used in an ATP assay to measure cytotoxicity. The MSD plates were incubated with shaking at r.t. for 2 h and the media discarded. 10 μL detection antibody was added (1 nM) per well followed by incubation with shaking at r.t. for 2 h and then discarded. 40 μL Read Buffer was added per well and the plates were read in a SECTOR Imager.

Row | IC50 [nM] | Compound
1 | 1.7 | COc1cccc(-c2ccc3c(c2)[C@@]2(N=C(C)C(N)=N2)[C@]2(CC[C@H](OC)CC2)C3)c1F [Example 89, (1r,1′R,4R)-6′-(2-Fluoro-3-methoxyphenyl)-4-methoxy-5″-methyl-3′H-dispiro[cyclohexane-1,2′-indene-1′,2″-imidazol]-4′″-amine]
2 | 0.97 | [2H]C([2H])([2H])O[C@H]1CC[C@]2(CC1)Cc1ccc(-c3cncc(Cl)c3)cc1C21N=C(C)C(N)=N1 (stereo partly shown) [Example 119, (1r,4r)-6′-(5-Chloropyridin-3-yl)-5′-methyl-4-[(^2H3)methyloxy]-3′H-dispiro[cyclohexane-1,2′-indene-1′,2″-imidazol]-4″-amine]
3 | 219 | CC1=NC2(N=C1N)c1cc(C#CC3CC3)ccc1CC21CCC1 (stereo not shown) [Example 58, 6′-(Cyclopropylethynyl)-5″-methyl-3′H-dispiro[cyclobutane-1,2′-indene-1′,2″-imidazol]-4″-amine]
4 | 1.6 | CO[C@H]1CC[C@]2(CC1)Cc1ccc(C#CC(C)C)cc1C21N=C(C)C(N)=N1 (stereo partly shown) [Example 113, (1r,4r)-4-Methoxy-5″-methyl-6′-(3-methylbut-1-yn-1-yl)-3′H-dispiro[cyclohexane-1,2′-indene-1′,2″-imidazol]-4″-amine]
5 | 135 | CC#Cc1cccc(-c2ccc3c(c2)C2(N=C(C)C(N)=N2)[C@]2(CC[C@H](OC)CC2)C3)c1Cl (stereo partly shown) [Example 123, (1r,4r)-6′-[2-Chloro-3-(prop-1-yn-1-yl)phenyl]-4-methoxy-5″-methyl-3′H-dispiro[cyclohexane-1,2′-indene-1′,2″-imidazol]-4″-amine]
6 | 20 | CC1=N[C@]2(C[C@@H]([C@@H]3CCCOC3)Oc3ccc(-c4cccc(Cl)c4)cc32)N=C1N [Example 48 Isomer 1, (2S,4R)-6-(3-chlorophenyl)-5′-methyl-2-[(3R)-tetrahydro-2H-pyran-3-yl]-2,3-dihydrospiro[chromene-4,2′-imidazol]-4′-amine]
7 | 0.63 | CO[C@H]1CC[C@]2(CC1)Cc1ccc(OCCC(F)(F)F)cc1C21N=C(C)C(N)=N1 (stereo partly shown) [Example 20u, (1r,4r)-4-methoxy-5″-methyl-6′-(3,3,3-trifluoropropoxy)-3′H-dispiro[cyclohexane-1,2′-indene-1′,2″-imidazol]-4″-amine]
8 | 18 | COC1CCC2(CC1)Cc1ccc(Br)cc1[C@@]21N=C(C)C(N)=N1 (single isomer, unassigned) [Example 19 Isomer 1]
9 | 160 | CC1=NC2(CCOc3ccc(NC(=O)c4ncc(Cl)cc4Cl)cc32)N=C1N (stereo not shown) [Example 13i, N-(4′-Amino-5′-methylspiro[chroman-4,2′-imidazole]-6-yl)-3,5-dichloropicolinamide]
10 | 28 | CC1=NC2(N=C1N)c1cc(-c3cc(F)cc(F)c3)ccc1C[C@]21CC[C@@H](OC(F)F)CC1 (stereo partly shown) [Example 109]
11 | 1.4 | CO[C@H]1CC[C@]2(CC1)Cc1ccc(OCC3CCC3)cc1C21N=C(C)C(N)=N1 (stereo partly shown) [Example 126, (1r,4r)-6′-(Cyclobutylmethoxy)-4-methoxy-5″-methyl-3′H-dispiro[cyclohexane-1,2′-indene-1′,2″-imidazol]-4″-amine]
12 | 7.1 | CO[C@H]1CC[C@]2(CC1)Cc1ccc(C#CC(C)(C)C)cc1C21N=C(C)C(N)=N1 (stereo partly shown) [Example 20h]
13 | 8.6 | CO[C@H]1CC[C@]2(CC1)Cc1ccc(-c3cc(Cl)cnc3C)cc1C21N=C(C)C(N)=N1 (stereo partly shown) [Example 62, (1r,4r)-6′-(5-Chloro-2-methylpyridin-3-yl)-4-methoxy-5″-methyl-3′H-dispiro[cyclohexane-1,2′-indene-1′,2″-imidazol]-4″-amine]
14 | 0.14 | [2H]C([2H])([2H])C#Cc1cncc(-c2ccc3c(c2)[C@@]2(N=C(C)C(N)=N2)[C@]2(CC[C@H](OC)CC2)C3)c1 [Example 114, (1r,1′R,4R)-4-Methoxy-5″-methyl-6′-{5-[(^2H3)prop-1-yn-1-yl]pyridin-3-yl}-3′H-dispiro[cyclohexane-1,2′-indene-1′,2″-imidazol]-4″-amine]
15 | 191 | CC1=N[C@]2(C[C@H]([C@@H]3CCCOC3)Oc3ccc(-c4cccc(Cl)c4)cc32)N=C1N [Example 48 Isomer 7, (2R,4R)-6-(3-chlorophenyl)-5′-methyl-2-[(3R)-tetrahydro-2H-pyran-3-yl]-1′,2,3,3′-tetrahydrospiro[chromene-4,2′-imidazol]-4′-amine]
16 | 501 | CC1=NC2(CCOc3ccc(NC(=O)c4ccc(Cl)cn4)cc32)N=C1N (stereo not shown) [Example 13a, N-(4′-Amino-5′-methylspiro[chroman-4,2′-imidazole]-6-yl)-5-chloropicolinamide]
17 | 0.85 | CC#Cc1cncc(-c2ccc3c(c2)C2(N=C(C)C(N)=N2)[C@]2(CC[C@H](OCC)CC2)C3)c1 (stereo partly shown) [Example 135, (1r,4r)-4-Ethoxy-5″-methyl-6′-[5-(prop-1-yn-1-yl)pyridin-3-yl]-3′H-dispiro[cyclohexane-1,2′-indene-1′,2″-imidazol]-4″-amine]
18 | 13 | CCC1=NC2(N=C1N)c1cc(-c3cccc(C#N)c3)ccc1C[C@]21CC[C@@H](OC)CC1 (stereo partly shown) [Example 70, 3-[(1r,4r)-4″-amino-5″-ethyl-4-methoxy-3′H-dispiro[cyclohexane-1,2′-indene-1′,2″-imidazol]-6′-yl]benzonitrile]
19 | 417 | CC1=NC2(N=C1N)c1cc(-c3cncc(Cl)c3)ccc1CC21CCC(C(F)F)CC1 (stereo not shown) [Example 129]
20 | 34 | CO[C@H]1CC[C@]2(CC1)Cc1ccc(-c3cccc(Cl)c3Cl)cc1[C@@]21N=C(C)C(N)=N1 [Example 104, (1r,1′R,4R)-6′-(2,3-dichlorophenyl)-4-methoxy-5″-methyl-3′H-dispiro[cyclohexane-1,2′-indene-1′,2″-imidazol]-4″-amine]

Same assay, conditions: Homo sapiens, compounds incubated 17 h, MSD detection

Row | IC50 [nM] | Compound
21 | 848 | COC1CCC2(CC1)Oc1ccc(Br)cc1C21N=C(C)C(N)=N1 (stereo not shown) [Example 29, 5′-bromo-4-methoxy-5″-methyldispiro[cyclohexane-1,2′-[1]benzofuran-3′,2″-imidazol]-4″-amine]
22 | 91 | CC1=NC2(CCCc3ccc(-c4cncc(Cl)c4)cc32)N=C1N (stereo not shown) [Example 52, 7′-(5-Chloropyridin-3-yl)-5-methyl-3′,4′-dihydro-2′H-spiro[imidazole-2,1′-naphthalen]-4-amine]
23 | 2.5 | CO[C@H]1CC[C@]2(CC1)Cc1ccc(-c3cc(C#N)ccc3F)cc1[C@@]21N=C(C)C(N)=N1 [Example 102, 3-[(1r,1′R,4R)-4″-Amino-4-methoxy-5″-methyl-3′H-dispiro[cyclohexane-1,2′-indene-1′,2″-imidazol]-6′-yl]-4-fluorobenzonitrile]
24 | 29 | CO[C@H]1CC[C@]2(CC1)Cc1ccc(NC(=O)c3ccc(F)cn3)cc1C21N=C(C)C(N)=N1 (stereo partly shown) [Example 20x, N-[(1r,4r)-4″-Amino-4-methoxy-5″-methyl-3′H-dispiro[cyclohexane-1,2′-indene-1′,2″-imidazol]-6′-yl]-5-fluoropyridine-2-carboxamide]
25 | 5.1 | COCc1cc(-c2ccc3c(c2)C2(N=C(C)C(N)=N2)[C@]2(CC[C@H](OC)CC2)C3)cc(C#N)c1F (stereo partly shown) [Example 127, 5-[(1r,4r)-4″-Amino-4-methoxy-5″-methyl-3′H-dispiro[cyclohexane-1,2′-indene-1′,2″-imidazol]-6′-yl]-2-fluoro-3-(methoxymethyl)benzonitrile]
26 | 46 | CC1=NC2(N=C1N)c1cc(Br)ccc1CC21CCC(OC(F)F)CC1 (stereo not shown) [Example 15, 6′-Bromo-4-(difluoromethoxy)-5″-methyl-3′H-dispiro[cyclohexane-1,2′-indene-1′,2″-imidazol]-4″-amine]
27 | 1.1 | COc1cc(C#N)cc(-c2ccc3c(c2)[C@@]2(N=C(C)C(N)=N2)[C@]2(CC[C@H](OC(F)F)CC2)C3)c1 (racemic) [Example 106, 3-[(1r,4r)-4″-Amino-4-(difluoromethoxy)-5″-methyl-3′H-dispiro[cyclohexane-1,2′-indene-1′,2″-imidazol]-6′-yl]-5-methoxybenzonitrile]
28 | 5.7 | CO[C@H]1CC[C@]2(CC1)Cc1ccc(-c3cc(F)ccc3F)cc1[C@@]21N=C(C)C(N)=N1 [Example 99, (1r,1′R,4R)-6′-(2,5-Difluorophenyl)-4-methoxy-5′-methyl-3′H-dispiro[cyclohexane-1,2′-indene-1′,2″-imidazol]-4″-amine]
29 | 53 | CC1=NC2(N=C1N)c1cc(-c3cccc(Cl)c3)ccc1CC21CCOCC1 (stereo not shown) [Example 26a, 6′-(3-Chlorophenyl)-5-methyl-2″,3″,5″,6″-tetrahydro-3′H-dispiro[imidazole-2,1′-indene-2′,4″-pyran]-4-amine]
30 | 5.7 | CO[C@H]1CC[C@]2(CC1)Cc1ccc(NC(=O)c3ncc(Cl)cc3C)cc1C21N=C(C)C(N)=N1 (stereo partly shown) [Example 20w, N-[(1r,4r)-4″-Amino-4-methoxy-5″-methyl-3′H-dispiro[cyclohexane-1,2′-indene-1′,2″-imidazol]-6′-yl]-5-chloro-3-methylpyridine-2-carboxamide]
31 | 3.7 | CO[C@H]1CC[C@]2(CC1)Cc1ccc(NC(=O)c3oc4cc(Cl)ccc4c3C)cc1C21N=C(C)C(N)=N1 (stereo partly shown) [Example 20n, N-[(1r,4r)-4″-Amino-4-methoxy-5″-methyl-3′H-dispiro[cyclohexane-1,2′-indene-1′,2″-imidazol]-6′-yl]-6-chloro-3-methyl-1-benzofuran-2-carboxamide]
